In patent US20110053770A1, “SUBSTITUTED AMINOTHIAZOLES AND THEIR USE AS FUNGICIDES” (BAYER CROPSCIENCE AG, priority 2009, published 2011):
Marks after values point to notes of the source that are not given here.

Assay: logP by HPLC on reversed-phase columns (C 18), EEC directive 79/831 Annex V.A8
Format: physicochemical
Conditions: for log P (*) / log P (**): acidic range; for log P (*): pH 2.3, 0.1% aqueous phosphoric acid and acetonitrile; for log P (**) / log P (***): LC-MS; for log P (**): pH 2.7, 0.1% aqueous formic acid and acetonitrile; for log P (***): neutral range, pH 7.8, 0.001 molar aqueous ammonium bicarbonate and acetonitrile
Procedure: Calibration was carried out using unbranched alkan-2-ones (having from 3 to 16 carbon atoms) with known logP values (the logP values were determined by the retention times using linear interpolation between two successive alkanones).

Structure (SMILES)	log P (*)	log P (**)	log P (***)
Brc1ccc(Oc2ccccc2-c2csc(N=C3CCCCN3)n2)cc1 [compound 84, 4-[2-(4-bromophenoxy)phenyl]-N-[(2E/Z)-piperidin-2-ylidene]-1,3-thiazole-2-amine]	2.14*		
CC(=O)N1CCCCC1=Nc1nc(-c2ccc(Cl)cc2)cs1 [compound 34, 1-[(2E/Z)-2-{[4-(4-chlorophenyl)-1,3-thiazol-2-yl]imino}piperidin-1-yl]ethanone]	3.78**; 3.78***; 3.78*	3.78**; 3.78***; 3.78*	3.78**; 3.78***; 3.78*
Cc1cccc(-c2ccccc2-c2csc(N=C3CCCCN3)n2)c1 [compound 65, 4-(3′-methylbiphenyl-2-yl)-N-[(2E/Z)-piperidin-2-ylidene]-1,3-thiazole-2-amine]		2**	
Fc1cccc(-c2csc(N=C3CCCCN3)n2)c1F [compound 25, 4-(2,3-difluorophenyl)-N-[(2E/Z)-piperidin-2-ylidene]-1,3-thiazole-2-amine]	1.58	1.58	3.21
Clc1ccc(Cc2ccccc2-c2csc(N=C3CCCCN3)n2)cc1 [compound 93, 4-[2-(4-chlorobenzyl)-phenyl]-N-[(2E/Z)-piperidin-2-ylidene]-1,3-thiazole-2-amine]		2.17	4.7
Fc1ccc(Cc2ccccc2-c2csc(N=C3CCCCN3)n2)cc1 [compound 90, 4-[2-(4-fluorobenzyl)phenyl]-N-[(2E/Z)-piperidin-2-ylidene]-1,3-thiazole-2-amine]		1.95	4.19
Cc1ccc(Oc2ccccc2-c2csc(N=C3CCCCN3)n2)cc1 [compound 79, 4-[2-(4-methylphenoxy)phenyl]-N-[(2E/Z)-piperidin-2-ylidene]-1,3-thiazole-2-amine]	2.17		4.51
CCOc1ccccc1-c1csc(N=C2CCCCN2)n1 [compound 23, 4-(2-ethoxyphenyl)-N-[(2E/Z)-piperidin-2-ylidene]-1,3-thiazole-2-amine]	1.77	1.77	3.35
Brc1ccccc1-c1csc(N=C2CCCCN2)n1 [compound 48, 4-(2-bromophenyl)-N-[(2E/Z)-piperidin-2-ylidene]-1,3-thiazole-2-amine]		1.58	3.25
Cc1sc(N=C2CCCCN2)nc1-c1cccc(F)c1F [compound 44, 4-(2,3-difluorophenyl)-5-methyl-N-[(2E/Z)-piperidin-2-ylidene]-1,3-thiazole-2-amine]	1.7	1.7	3.2
Brc1ccccc1-c1csc(N=C2CCCCN2)n1 [compound 107, 4-(2-bromophenyl)-N-[(2E/Z)-piperidin-2-ylidene]-1,3-thiazole-2-amine]		1.38**	
FC(F)Oc1ccc(-c2csc(N=C3CCCCN3)n2)cc1 [compound 49, 4-[4-(difluoromethoxy)phenyl]-N-[(2E/Z)-piperidin-2-ylidene]-1,3-thiazole-2-amine]		1.44**	
Clc1ccc(Oc2ccccc2-c2csc(N=C3CCCCN3)n2)cc1 [compound 74, 4-[2-(4-chlorophenoxy)phenyl]-N-[(2E/Z)-piperidin-2-ylidene]-1,3-thiazole-2-amine]	2.03*		
c1ccc(-c2csc(N=C3CCCCN3)n2)nc1 [compound 61, N-[(2E/Z)-piperidin-2-ylidene]-4-(pyridin-2-yl)-1,3-thiazole-2-amine]		0.27**	
